Assay results taken from patent publication US20250262167A1, “COMPOUNDS, TARGETS AND PATHWAYS FOR MACROPHAGE MODULATION” (Massachusetts Institute of Technology, priority 2020, published 2025).

Tests used:
[1] = KC-specific Pkm−/− mice
Experimental: FIGS. 24G-24H show DPI's effect on KC-specific Pkm^−/− mice fed with HFD. Male KC-specific Pkm^−/− mice at the age of 5 weeks were fed with HFD for a total of 8 weeks. Three weeks after HFD, half of the mice were given DPI in vehicle (2 mg/kg) and the other half were given vehicle every 5 days for a total of 6 doses. Body weights were monitored weekly (FIG. 24G). Data are presented as the mean±sd from two independent experiments with 6 mice per group. Comparison of H&E staining of liver sections after 8 weeks on HFD. Shown are representative H&E staining from one mouse per group. Arrows in FIG. 24F and FIG. 24H point to lipid droplets. Scale bar: 100 μm. P values were calculated by student t-test. * P<0.05, ** P<0.01, *** P<0.001, **** P<0.0001.
FIGS. 34A-34C show effect of DPI on Kupffer cell-specific Pkm^−/− mice on HFD. […] KC-specific Pkm^−/− mice were given HFD for a total of 8 weeks. Three weeks after HFD, half of the mice were given DPI in vehicle (2 mg/kg) and the other half were given vehicle every 5 days for a total of 6 doses. At 7 weeks plus 3 days, mice were starved overnight (12˜16 hrs) with only water. Glucose (1 mg/kg) was injected intraperitoneally and blood glucose levels were monitored at the indicated time. […] Sera from mice were collected at the end of HFD feeding and activities of AST and ALT were measured by colorimetric assay kits (Sigma). Shown are representative data from two independent experiments with 5˜6 mice per group. P values were calculated by student t-test. n.s. not significant. * P<0.05.
KC-specific Pkm^−/− mice were fed with HFD for 8 weeks starting at 5 weeks of age. Three weeks after HFD, half of the mice were given vehicle and the other half was given DPI (2 mg/kg) i.p. every 5 days.

[2] = system: ImKCs (immortalized line of mouse Kupffer cells); assay: Seahorse ECAR/OCR (glycolysis, OxPhos) in ImKCs; type: cell-based
Experimental: Shown are representative data of three independent experiments. […] Data are presented as the mean±sd (n=4).
FIGS. 21A-21I show DPI stimulates glycolysis through GPR3 and β-arrestin2. FIGS. 21A-21B show DPI-stimulated glycolysis is independent of the NOX activity. […] The mean fluorescence intensity (MFI) of 2-NBDG in cells was measured by flow cytometry and normalized to DMSO controls of wildtype BMDMs. Data are presented as the mean±sd (n=3). […] ImKCs were transfected with siRNA specific for Gpr3 or a scramble siRNA as control. […] Data are presented as the mean±sd (n=4). […] Data are presented as the mean±sd (n=12). […] Abbr2^−/− ImKC were constructed by CRISPR-Cas9-mediated gene editing. […] Data are presented as the mean±sd (n=4). […] ImKCs were transfected with Abbr2-GFP fusion gene and stimulated with DMSO, DPI (50 nM), or S1P (3 mM). The GFP signal was captured with a TIRF microscope at indicated time points. Shown are representative data of GFP signal at 0 min and 10 min, and merged signal from three independent experiments.
Specific parameters for glycolytic capacity and glycolytic reserve were calculated and summarized based on two independent experiments. […] The GFP signal was captured with a TIRF microscope at indicated time points. Shown are representative data of GFP signal at 0 min and 10 min, and the merged signal from three independent experiments.
OCR and ECAR were measured in isolated tissues or cultured ImKCs using the Seahorse XFe Extracellular Flux Analyzer (Agilent). For tissue respiration assays, 1.0 mg adipose tissue was dissected from inguinal WAT depots by using a surgical biopsy instrument (Integra Miltex Standard Biopsy Punches, Thermo Fisher) and placed into XF96 Islet Capture Microplates and pre-incubated with XF assay medium with pH value at 7.4. XF assay medium supplemented with 1 mM sodium pyruvate, 2 mM GlutaMax™-I, and 25 mM glucose. Isolated MDMs or Kupffer cells were subjected to a mitochondrial stress test by adding oligomycin (2 μM) followed by carbonyl cyanide 4-(trifluoromethoxy), phenylhydrazone (FCCP, 5 μM), and antimycin (1 μM). For glucose stress assay and ECAR measurement, XF assay medium was supplemented only with GlutaMax™-I. Tissue or cells were subjected to a glucose stress test by adding highly concentrated glucose (for tissue, 25 mM; for cells, 10 mM), followed by adding oligomycin (5 μM), FCCP (5 μM), and 2-DG (50 mM). Cells were seeded in culture dishes, and the medium was changed after 6 hours with serum-free DMEM. Cells were incubated for 12-16 hours, and the culture medium was then collected for measurement of glucose and lactate concentrations. Glucose levels were determined using a glucose (GO) assay kit (Sigma). Glucose consumption was the difference in glucose concentration when compared with DMEM. Lactate levels were determined using a lactate assay kit (Eton Bioscience).
DPI is an agonist of GPR3 and an inhibitor of […] oxidase (NOX). We first determined the requirement of NOX in DPI-stimulated glycolysis.
To determine the requirement of GPR3, we knocked down GPR3 by siRNA (siGpr3) in ImKCs.
β-arrestin2, encoded by Arrb2, has been reported to bind to GPR3 and is required for GPR3 signaling. To investigate the requirement of 0-arrestin2 in DPI-stimulated glycolysis, we constructed Arrb2^−/− ImKCs using CRISPR-Cas9 mediated gene editing (FIG. 28F).

hMDMs = assay: RNA-seq transcriptional response of hMDMs (GSEA, GO enrichment); type: cell-based, human; details: hMDMs, 2.5 μM, 24 hours
Experimental: Duplicate hMDM samples were treated with 2 M2-activating and 6 M1-activating compounds as well as IL-4 and IFNγ for 24 hrs. Gene expression levels were measured by RNA-seq separately. GSEA preranked analysis was performed based on the whole genome gene list ranked on gene expression changes using a gene set of 49 transcriptional modules in response to 29 stimuli in hMDMs. bosut.: bosutinib; alster.: alsterpaullone; mocet.: mocetinostat; thios.: thiostrepton; niclo.: niclosamide; chlor.: chlorhexidine; fenb.: fenbendazole; fluvo.: fluvoxamine. […] Duplicate hMDM samples were stimulated with each ligand and analyzed by RNA-seq separately.
DEGs were identified by edgeR at P<0.05 with at least 2 fold-change.
RNAs were extracted with RNeasy MiniElute kit (Qiagen), converted into cDNA and sequenced using Next-Generation Sequencing (Illumina). […] Differential expression analysis was performed using the program edgeR at P<0.05 with a 2 fold-change. The gene expression level across different samples was normalized and quantified using the function of cpm. Differentially expressed genes were annotated using online functional enrichment analysis tool DAVID (http://david.ncifcrf.gov/). Gene set enrichment analysis were performed with GSEA with FDR q-value<0.05.
Fresh hMDMs were treated with compounds at the EC for 24 hours, followed by RNA-seq.

[3] = system: hMDM with anti-CD20 labelled human B lymphoma cells (GMB); assay: ADCP of human macrophages; type: cell-based; set-up: dose or concentration left out as unconfirmed; details: co-culture 2 hrs
Experimental: Conditioned medium (CM) was collected and filtered. B16F10 melanoma cells were cultured for 12 hrs with CM or CM heat-inactivated at 95° C. for 5 min. The number of tumor cells were quantified by flow cytometry. Data were summarized from two independent experiments. * P<0.05 by T-test. P values are shown based on t-test. […] Mouse BMMs (FIG. 14B) or hMDM (FIG. 14C) were treated with […] thiostrepton for 24 hrs, then co-cultured with equal number of eFluro670 and anti-CD20 labelled human B-cell lymphoma cells for 2 hrs, and analyzed by flow cytometry. Macrophages that have phagocytosed tumor cells are identified as efluro670+ and CD14+. Shown are representative eFluro670 histograms gating on CD14+ macrophages from three different experiments.
To examine whether thiostrepton-activating macrophages or conditioned medium have effects on tumor cell growth, BMMs were treated with thiostrepton for 24 hrs. Equal numbers of primed BMMs and melanoma cells (B16F10) were co-cultured for 12 hrs. […] Thiostrepton elevated ADCP of both human and mouse macrophages (FIGS. 14B-14C).

[4] = 5, 50 and 500 nM, short-term, dose-dependent

Compound | iWAT [1] | HFD-induced body-weight gain and lipid droplet deposition in the livers ([1]; 2 mg/kg i.p. every 5 days) | glucose tolerance, serum AST and ALT levels ([1]; with or without DPI) | ECAR [2, 4] | OCR [2, 4] | glycolytic capacity and reserve ([2]; 50 and 500 nM, 24 hrs) | glycolysis and glycolytic capacity ([2]; Arrb2−/− ImKCs, 50 nM) | glycolysis, glycolytic capacity and glucose consumption ([2]; siGpr3 ImKCs, 50 nM) | glycolysis and glycolytic capacity ([2]; siGpr3 ImKCs, 500 nM, lower than in scramble siRNA ImKCs) | expression of M2 chemokine CCL24 (hMDMs) | expression of proinflammatory cytokines TNFα and IL-1β (hMDMs) | ADCP [3]
c1ccc2c(c1)[I+]c1ccccc1-2 [Diphenyleneiodonium chloride] | significantly lower level | did not reduce | similar | immediate increase | concomitant decrease | significant increase | did not stimulate any increase | did not stimulate any increase | significant increase | – | – | –
C=C(NC(=O)C(=C)NC(=O)c1csc(C2=N[C@@H]3c4csc(n4)[C@H]4NC(=O)c5csc(n5)[C@H]([C@](C)(O)[C@@H](C)O)NC(=O)[C@H]5CSC(=N5)/C(=C/C)NC(=O)[C@H]([C@@H](C)O)NC(=O)c5csc(n5)[C@]3(CC2)NC(=O)[C@H](C)NC(=O)C(=C)NC(=O)[C@H](C)NC(=O)[C@H]([C@@H](C)CC)N[C@@H]2C=Cc3c([C@H](C)O)cc(nc3[C@H]2O)C(=O)O[C@@H]4C)n1)C(N)=O [Thiostrepton] | – | – | – | – | – | – | – | – | – | down-regulate | polarized to express | elevated
